{"source": "patent US20160279246A1", "about": "“METHODS AND SYSTEMS FOR CONTINUOUS HETEROGENEOUS CRYSTALLIZATION” (Massachusetts Institute of Technology, priority 2015, published 2016)", "assay": "Solubility of API and excipient in the solvent ethanol", "assay_type": "physicochemical", "description": "The API-Excipient-Solvent selection was important to this process. The specific API chosen was soluble in the solvent; however the excipient was insoluble in the same solvent. The API-Excipient combination was such that the API molecules easily nucleate on the surface of the excipient. Use of low supersaturation stopped primary nucleation, and ensures the presence of heterogeneous nuclei alone. These nuclei grew further during their stay inside the column. Tuning of residence time and supersaturation helps in tuning of the loading (weight of API per unit weight of product) of excipient particles with drug.\nAn exemplary embodiment was implemented with Acetaminophen-D-mannitol-Ethanol as a sample API-Excipient-Solvent system. Acetaminophen was soluble in ethanol; however D-mannitol was insoluble in ethanol."}
{"smiles": "CC(=O)Nc1ccc(O)cc1", "note": "[Acetaminophen]", "values": [{"measurement": "Solubility in ethanol", "result": "soluble"}]}
{"smiles": "OC[C@@H](O)[C@@H](O)[C@H](O)[C@H](O)CO", "note": "[D-mannitol]", "values": [{"measurement": "Solubility in ethanol", "result": "insoluble"}]}
